Experimental data as given in ChEMBL document CHEMBL3045916, “Synthesis, characterization, biological evaluation and in silico screening of oxadiazinanones” (Med Chem Res, 2013).
Converted amounts (≈) assume the structure as drawn.

Legend:
Staphylococcus aureus [1] = assay: Antibacterial activity against methicillin-resistant Staphylococcus aureus assessed as growth inhibition after 24 hr by disk diffusion method; assay type: functional
[2] = test system: Radical scavenging activity; assay: Antioxidant activity assessed as DPPH radical scavenging activity at 6 ug/mL after 30 min by spectrophotometric analysis relative to control; assay type: functional
[3] = test system: Radical scavenging activity; assay: Antioxidant activity assessed as DPPH radical scavenging activity after 30 min by spectrophotometric analysis; assay type: functional
Klebsiella pneumoniae [4] = assay: Antibacterial activity against Klebsiella pneumoniae clinical isolate assessed as growth inhibition after 24 hr by disk diffusion method; assay type: functional
Escherichia coli [5] = assay: Antibacterial activity against Escherichia coli ATCC 25922 assessed as growth inhibition after 24 hr by disk diffusion method; assay type: functional
Staphylococcus aureus [6] = assay: Antibacterial activity against methicillin-resistant Staphylococcus aureus assessed as growth inhibition after 24 hr by macro-dilution method; assay type: functional
[7] = test system: Trichophyton mentagrophytes; assay: Fungicidal activity against Trichophyton mentagrophytes after 48 hr; assay type: functional
Pseudomonas aeruginosa [8] = assay: Antibacterial activity against Pseudomonas aeruginosa ATCC 9029 assessed as growth inhibition after 24 hr by disk diffusion method; assay type: functional
Candida albicans [9] = assay: Fungicidal activity against Candida albicans ATCC 90028 after 48 hr; assay type: functional; settings: ATCC 90028, 48 h
Talaromyces marneffei [10] = assay: Antifungal activity against Talaromyces marneffei assessed as growth inhibition after 48 hr by agar disk diffusion method; assay type: functional
Staphylococcus aureus [11] = assay: Bactericidal activity against methicillin-resistant Staphylococcus aureus after 18 to 24 hr; assay type: functional
Pseudomonas aeruginosa [12] = assay: Antibacterial activity against Pseudomonas aeruginosa ATCC 9029 assessed as growth inhibition after 24 hr by macro-dilution method; assay type: functional; settings: ATCC 9029, 24 h
[13] = test system: Trichophyton mentagrophytes; assay: Antifungal activity against Trichophyton mentagrophytes assessed as growth inhibition after 48 hr by agar disk diffusion method; assay type: functional
Klebsiella pneumoniae [14] = assay: Bactericidal activity against Klebsiella pneumoniae clinical isolate after 18 to 24 hr; assay type: functional
Pseudomonas aeruginosa [15] = assay: Bactericidal activity against Pseudomonas aeruginosa ATCC 9029 after 18 to 24 hr; assay type: functional
[16] = test system: Trichophyton mentagrophytes; assay: Antifungal activity against Trichophyton mentagrophytes assessed as growth inhibition after 48 hr by macro-dilution method; assay type: functional
Streptococcus pyogenes [17] = assay: Bactericidal activity against Streptococcus pyogenes clinical isolate after 18 to 24 hr; assay type: functional
[18] = test system: Radical scavenging activity; assay: Antioxidant activity assessed as DPPH radical scavenging activity at 4 ug/mL after 30 min by spectrophotometric analysis relative to control; assay type: functional
Streptococcus pyogenes [19] = assay: Antibacterial activity against Streptococcus pyogenes clinical isolate assessed as growth inhibition after 24 hr by disk diffusion method; assay type: functional
Candida albicans [20] = assay: Antifungal activity against Candida albicans ATCC 90028 assessed as growth inhibition after 48 hr by macro-dilution method; assay type: functional; settings: ATCC 90028, 48 h
Escherichia coli [21] = assay: Antibacterial activity against Escherichia coli ATCC 8739 assessed as growth inhibition after 24 hr by macro-dilution method; settings: ATCC 8739, 24 h
[22] = test system: Radical scavenging activity; assay: Antioxidant activity assessed as DPPH radical scavenging activity at 10 ug/mL after 30 min by spectrophotometric analysis relative to control; assay type: functional
Aspergillus fumigatus [23] = assay: Fungicidal activity against Aspergillus fumigatus after 48 hr; assay type: functional
Aspergillus fumigatus [24] = assay: Antifungal activity against Aspergillus fumigatus assessed as growth inhibition after 48 hr by agar disk diffusion method; assay type: functional
[25] = test system: Radical scavenging activity; assay: Antioxidant activity assessed as DPPH radical scavenging activity at 2 ug/mL after 30 min by spectrophotometric analysis relative to control; assay type: functional
[26] = test system: Radical scavenging activity; assay: Antioxidant activity assessed as DPPH radical scavenging activity at 8 ug/mL after 30 min by spectrophotometric analysis relative to control; assay type: functional
Aspergillus fumigatus [27] = assay: Antifungal activity against Aspergillus fumigatus assessed as growth inhibition after 48 hr by macro-dilution method; assay type: functional
Klebsiella pneumoniae [28] = assay: Antibacterial activity against Klebsiella pneumoniae clinical isolate assessed as growth inhibition after 24 hr by macro-dilution method; assay type: functional
Candida albicans [29] = assay: Antifungal activity against Candida albicans ATCC 90028 assessed as growth inhibition after 48 hr by agar disk diffusion method; assay type: functional
Streptococcus pyogenes [30] = assay: Antibacterial activity against Streptococcus pyogenes clinical isolate assessed as growth inhibition after 24 hr by macro-dilution method; assay type: functional
Escherichia coli [31] = assay: Bactericidal activity against Escherichia coli ATCC 25922 after 18 to 24 hr; assay type: functional
Talaromyces marneffei [32] = assay: Fungicidal activity against Talaromyces marneffei after 48 hr; assay type: functional
Talaromyces marneffei [33] = assay: Antifungal activity against Talaromyces marneffei assessed as growth inhibition after 48 hr by macro-dilution method; assay type: functional

Row | SMILES | diameter of the inhibition zone (DIZ) (Staphylococcus aureus [1]) | Activity [2] | IC50 [3] | diameter of the inhibition zone (DIZ) (Klebsiella pneumoniae [4]) | diameter of the inhibition zone (DIZ) (Escherichia coli [5]) | MIC (Staphylococcus aureus [6]) | MFC [7] | diameter of the inhibition zone (DIZ) (Pseudomonas aeruginosa [8]) | MFC (Candida albicans [9]) | diameter of the inhibition zone (DIZ) (Talaromyces marneffei [10]) | MBC (Staphylococcus aureus [11]) | diameter of the inhibition zone (DIZ) [13] | MIC [16] | MIC (Candida albicans [20]) | MFC (Aspergillus fumigatus [23]) | diameter of the inhibition zone (DIZ) (Aspergillus fumigatus [24]) | MIC (Aspergillus fumigatus [27]) | diameter of the inhibition zone (DIZ) (Candida albicans [29]) | MFC (Talaromyces marneffei [32]) | MIC (Talaromyces marneffei [33]) | further results
1 | CC1(c2ccc(O)cc2)NNC(=O)CO1 (stereo unspecified) | 18.3 mm | 37.2% | 8.02 µg/mL (≈ 38.5 µM) | 14.6 mm | 18.4 mm | 25 µg/mL (≈ 120 µM) | 50 µg/mL (≈ 240 µM) | 24.4 mm | 100 µg/mL (≈ 480 µM) | 15.1 mm | 50 µg/mL (≈ 240 µM) | 16.3 mm | 25 µg/mL (≈ 120 µM) | 25 µg/mL (≈ 120 µM) | 100 µg/mL (≈ 480 µM) | 19.4 mm | 50 µg/mL (≈ 240 µM) | 22.4 mm | 100 µg/mL (≈ 480 µM) | 50 µg/mL (≈ 240 µM) | MIC (Pseudomonas aeruginosa [12]): 25 µg/mL (≈ 120 µM); MBC (Klebsiella pneumoniae [14]): 50 µg/mL (≈ 240 µM); MBC (Pseudomonas aeruginosa [15]): 100 µg/mL (≈ 480 µM); MBC (Streptococcus pyogenes [17]): 50 µg/mL (≈ 240 µM); Activity [18]: 25.1%; diameter of the inhibition zone (DIZ) (Streptococcus pyogenes [19]): 19.3 mm; MIC (Escherichia coli [21]): 50 µg/mL (≈ 240 µM); Activity [22]: 62.4%; Activity [25]: 11.9%; Activity [26]: 49%; MIC (Klebsiella pneumoniae [28]): 25 µg/mL (≈ 120 µM); MIC (Streptococcus pyogenes [30]): 25 µg/mL (≈ 120 µM); MBC (Escherichia coli [31]): 100 µg/mL (≈ 480 µM)
2 | C[C@@H]1[C@H](O)[C@@H](C)/C=C/C=C/C=C/C=C/C=C/C=C/C=C/[C@H](O[C@@H]2O[C@H](C)[C@@H](O)[C@H](N)[C@@H]2O)C[C@@H]2O[C@](O)(C[C@@H](O)C[C@@H](O)[C@H](O)CC[C@@H](O)C[C@@H](O)CC(=O)O[C@H]1C)C[C@H](O)[C@H]2C(=O)O [AMPHOTERICIN B] |  |  |  |  |  |  | 25 µg/mL (≈ 27.1 µM) |  | 25 µg/mL (≈ 27.1 µM) | 21.5 mm |  | 23.5 mm | 6.25 µg/mL (≈ 6.76 µM) | 6.25 µg/mL (≈ 6.76 µM) | 25 µg/mL (≈ 27.1 µM) | 26.5 mm | 12.5 µg/mL (≈ 13.5 µM) | 30.5 mm | 25 µg/mL (≈ 27.1 µM) | 12.5 µg/mL (≈ 13.5 µM) | 
3 | CC1(c2cccc(O)c2)NNC(=O)CO1 (stereo unspecified) | 19.1 mm | 50.2% | 5.99 µg/mL (≈ 28.8 µM) | 15.1 mm | 25.4 mm | 12.5 µg/mL (≈ 60 µM) | 25 µg/mL (≈ 120 µM) | 26.2 mm | 25 µg/mL (≈ 120 µM) | 14.5 mm | 25 µg/mL (≈ 120 µM) | 17.2 mm | 12.5 µg/mL (≈ 60 µM) | 12.5 µg/mL (≈ 60 µM) | 50 µg/mL (≈ 240 µM) | 22.4 mm | 12.5 µg/mL (≈ 60 µM) | 25.5 mm | 50 µg/mL (≈ 240 µM) | 12.5 µg/mL (≈ 60 µM) | MIC (Pseudomonas aeruginosa [12]): 12.5 µg/mL (≈ 60 µM); MBC (Klebsiella pneumoniae [14]): 25 µg/mL (≈ 120 µM); MBC (Pseudomonas aeruginosa [15]): 25 µg/mL (≈ 120 µM); MBC (Streptococcus pyogenes [17]): 25 µg/mL (≈ 120 µM); Activity [18]: 31.8%; diameter of the inhibition zone (DIZ) (Streptococcus pyogenes [19]): 19.4 mm; MIC (Escherichia coli [21]): 12.5 µg/mL (≈ 60 µM); Activity [22]: 82.8%; Activity [25]: 16.7%; Activity [26]: 66.3%; MIC (Klebsiella pneumoniae [28]): 12.5 µg/mL (≈ 60 µM); MIC (Streptococcus pyogenes [30]): 12.5 µg/mL (≈ 60 µM); MBC (Escherichia coli [31]): 50 µg/mL (≈ 240 µM)
4 | O=C(O)c1cn(C2CC2)c2cc(N3CCNCC3)c(F)cc2c1=O [CIPROFLOXACIN] | 21 mm |  |  |  | 27.5 mm |  |  | 31.5 mm |  |  |  |  |  |  |  |  |  |  |  |  | 
